Assay results as given in article PMC5833777, “Lup-20(29)-en-3β,28-di-yl-nitrooxy acetate affects MCF-7 proliferation through the crosstalk between apoptosis and autophagy in mitochondria” (Cell Death & Disease, 2018).

Legend:
MCF-7 xenograft = assay: In vivo antitumor efficacy on MCF-7 tumor-bearing nude mice (tumor volume, H&E, TUNEL); parameters: species or system female BALB/c nude mice; details: for tumor growth compared with the control: i.p. daily for 11 days, NBT 100 mg/kg, BT 100 mg/kg, 5-FU 22 mg/kg
Text: Representative images are shown at ×400 magnification. Scale bar: 100 μm. Data represent mean ± SD of three independent experiments
Tumor samples were fixed in 10% formalin, paraffinized, and sectioned into 4-μm sections, which were stained with H&E according to standard methods.
Tumor samples were fixed in 10% formalin, paraffinized, and sectioned into 4-μm sections, which were stained with FITC-POD according to standard methods.

A549 = assay: CCK-8 cell proliferation assay, A549; type: cell-based; details: Homo sapiens, 48 h
Experimental: (§1) Fig. 2 NBT and BT induced cell death in HeLa, A549, and MCF-7 cell lines. a Effects of BT on the proliferation of MCF-7, HeLa, and A549 cells. Cells (5 × 10^3) were seeded in a 96-well plate for 24 h and then treated with increased concentrations of BT for 48 h. The cell viability was evaluated by using CCK-8 assay. b MCF-7, HeLa, and A549 cells (5 × 10^3) were seeded in a 96-well plate for 24 h and were treated with known concentrations of NBT for 48 h. c MCF-7 cells (5 × 10^3) were seeded in a 96-well plate for 24 h and then were treated with known concentrations of NBT for 24 or 48 h. The cell viability was evaluated by using CCK-8 assay. d MCF10A, BEAS-2B, and L-02 cells (5 × 10^3) were seeded in a 96-well plate for 24 h and were treated with 6, 12, and 24 μM concentrations of NBT for 24 or 48 h. The cell viability was evaluated by using CCK-8 assay.
(§2) MCF-7, HeLa, A549, BEAS-2B, MCF10A, and L-02 cell lines were purchased from the American Type Culture Collection (ATCC) (Rockville, Maryland, USA). […]
(§3) Cells were grown in 96-well plates at a density of 5 × 10^3 cells/100 μL for 24 h, and then various concentrations of BT or NBT were added for 24 or 48 h. […] Optical density was measured at 450 nm by using a multimode plate reader (PerkinElmer EnSpire, USA).

HeLa = assay: CCK-8 cell proliferation assay, HeLa; type: cell-based; details: Homo sapiens, 48 h
Experimental: as §1, §2, §3

MCF-7 = assay: CCK-8 cell proliferation assay, MCF-7; type: cell-based; details: Homo sapiens, MCF7, 48 h
Experimental: as §1, §2, §3

[1] = for coefficient of the heart, liver, spleen, and kidney to the body weight: after 11 days of exposure; for body weight changes: during 11 days of exposure; for ALT/GPT / AST/GOT / BUN / CRE / UA: serum, after 11 days i.p., N = 8, mean ± S
MCF-7 cells = assay: Western blots of MCF-7 cell extracts; type: cell-based
Experimental: MCF-7 cells treated with NBT and/or CQ for 24 h were harvested, washed twice with cold PBS, and then fractionated into cytosolic and mitochondrial fractions by using a Qproteome Mitochondria Isolation Kit (Qiagen, Germany) following the manufacturer’s protocol.
MCF-7 cells treated with NBT and/or CQ for 24 h were lysed in cell lysis buffer containing 1% PMFS for 30 min on ice and centrifuged at 12,000 r.p.m. for 5 min at 4 °C. Then, the protein was quantified by using a BCA Protein Assay Kit (BestBio, Shanghai, China).
Total cell extracts (50 μg) were separated by using SDS-PAGE at 120 V for 1.5 h at room temperature and then eletrotransferred onto PVDF membranes at 300 mA for 1 h at 4 °C. The membranes were washed three times with TBST each for 10 min, blocked with 5% nonfat dry milk in TBST for 2 h at room temperature, rinsed with TBST, incubated with primary antibodies overnight at 4 °C, washed three times with TBST, incubated with HRP-linked anti-IgG for 1 h at room temperature, and then washed three times as before. At the same time, β-actin, GAPDH, and tubulin acted as the control. Afterward, the chemiluminescent bands were analyzed using Image Lab™ Software on ChemiDoc XRS + (Bio-Rad, USA).

[2] = MCF-7, 24 h, NBT 6-24 μM, Rapa 0.25 μM, NBT 12 μM + CQ 40 μM

Structure (SMILES) | tumor growth compared with the control (MCF-7 xenograft) | coefficient of the heart, liver, spleen, and kidney to the body weight [1] | body weight changes [1] | ALT/GPT [1] | AST/GOT [1] | BUN [1] | CRE [1] | UA [1] | other results
C=C(C)[C@@H]1CC[C@]2(CO)CC[C@]3(C)[C@H](CC[C@@H]4[C@@]5(C)CC[C@H](O)C(C)(C)[C@@H]5CC[C@]43C)[C@@H]12 [BT, Betulin] | minimal reduction in tumor growth | no significant differences | no significant differences | 106.33 ± 24.27 IU/L | 183.42 ± 39.98 IU/L | 10.13 ± 3.04 mmol/L | 45.10 ± 6.43 µmol/L | 130.18 ± 25.22 µmol/L | HE staining of tumors (MCF-7 xenograft; 100 mg/kg i.p., 11 days): fibrosis, necrosis, and inflammatory cell infiltration; inhibition at 500 µM (A549): ≤ 40%; IC50 (HeLa): 288 ± 12.3 µM; inhibition at 500 µM (MCF-7): ≤ 40%; safety after 11 days of administration ([1]; 100 mg/kg i.p., nude mice): safe
Cn1cnc(N)c2ncnc1-2 [3-MA, 3-methyladenine, reference compound] |  |  |  |  |  |  |  |  | effect on NBT-induced caspase-9 and PARP activation (MCF-7 cells; MCF-7, 3-MA 5 mM with NBT 12 μM, 24 h): inhibit
CO[C@H]1C[C@@H]2CC[C@@H](C)[C@@](O)(O2)C(=O)C(=O)N2CCCC[C@H]2C(=O)O[C@H]([C@H](C)C[C@@H]2CC[C@@H](O)[C@H](OC)C2)CC(=O)[C@H](C)/C=C(\C)[C@@H](O)[C@@H](OC)C(=O)[C@H](C)C[C@H](C)/C=C/C=C/C=C/1C [Rapa, Rapamycin, reference compound] |  |  |  |  |  |  |  |  | p62 level reduced by (MCF-7 cells; MCF-7, 0.25 μM alone, 24 h): 60%; Atg5 level (MCF-7 cells; [2]): increased; p62 level (MCF-7 cells; [2]): decreased; LC3B-II level (MCF-7 cells; MCF-7, 24 h, Rapa 0.25 μM, NBT 12 μM + CQ 40 μM): increased
CCN(CC)CCCC(C)Nc1ccnc2cc(Cl)ccc12 (stereo not drawn) [CQ, Chloroquine, reference compound] |  |  |  |  |  |  |  |  | p62 level increased by (MCF-7 cells; MCF-7, 40 μM, 24 h): 75%
O=c1[nH]cc(F)c(=O)[nH]1 [5-FU, 5-fluorouracil] | significant reduction in tumor growth | no significant differences | no significant differences | 95.48 ± 12.86 IU/L | 245.71 ± 47.15 IU/L | 9.26 ± 2.23 mmol/L | 32.95 ± 6.29 µmol/L | 84.52 ± 6.63 µmol/L | 
